Assay results reported in US5538993A, “Certain tetrahydrocannabinol-7-oic acid derivatives” (priority 1991, dated 1996).

Columns and labels:
peritoneal leukocytes = test: Leukocyte adhesion assay (peritoneal cells after oral dosing); format: in vivo, female CD-1 mice; settings: cells collected 90 min after dosing; for number of adhering cells: ± S.D
Method: Leukocytes are thought to be major contributors to the inflammatory response and their ability in this regard is reflected by their adhesiveness to a variety of substrates [Audette, C. A., et al., ibid.] Sci., 47, 753 (1990)].
The details of the leukocytes adhesion assay have been previously reported [Audette et al., ibid.]. In brief, peritoneal cells from female CD-1 mice (20-25 g) were collected at 90 min following oral administration of the drug or vehicle (50 μl peanut oil). Cells from each treatment group (N=3) were pooled and equal numbers aliquoted into six culture dish wells (1.9 cm^2 area). After incubation for 18-20 hours, non-adhering cells were removed and the remaining cell monolayer quantitated by DNA measurement.

mouse hot plate test = test: Hot plate test for antinociception (55° C.); format: in vivo; settings: 0.02 mg/kg oral, 90 min before test
Method: In the hot plate test for analgesia an aluminum surface was maintained at 55±1° C. by circulating water through passages in the metal. A clear plastic cylinder 18 cm in diameter and 26 cm high was placed on the surface to prevent escape. The end point was taken when the mouse either performed a hind paw lick or jumped off the surface; in no case were the animals kept for more than 30 secs on the plate. Mice were never used more than one time; control values were always measured at 11 a.m. and test values at 2 p.m. The drugs were administered orally 90 min before the hot plate test. The percent change in response time (latency) was calculated by comparing the mean of the control values with the mean of the test values and statistical signficance determined by a paired tetest analysis using software (Statview, 512) from Brainpower, Inc., Calabasas, Calif.

cataleptic response = test: Cataleptic effects, ring test; format: in vivo, mouse; settings: 5 min test period, ± SD
Method: The lack of CNS activity for the compounds described herein may be seen from the data shown in Table V. This was measured by the so-called "ring test" [Pertwee, R. G., et al., J. Pharmacol., 46, 753 (1972)] in which the cataleptic effects of cannabinoids can be quantitated. The compounds produced little or no response when compared with the parent drug.
The cataleptic response was measured using the ring test. Mice were placed on a horizontal wire ring 5.5 cm in diameter, which was attached to a 16 cm vertical rod. The hind paws and fore paws were placed at opposite sides of the ring. It is important that the ambient temperature is maintained at 30° C. and that the environment be free of auditory stimuli and bright lights. The criteria for immobility are detailed by Pertwee. The response is calculated as the fraction of time the mouse is immobile over a 5 min. test period. Measurements were always done between 2 and 4 p.m. and the animals were used only once.

[1] = tested on: Picrotoxin induced lethality; test: Protection against picrotoxin induced lethality; format: in vivo, Balb/c male mice; settings: mice; result in words
Method: (§1) The present compounds are active in several tests generally used to indicate neuroprotection.
(§2) Balb/c male mice were administered with the drug 90 min before treatment with NMDA (125 mq/kg) or 120 min before picrotoxin (8 mg/kg) in emulsion, s.c. The survival rate shown in Table VI indicates number of survivors out of total number of animals used.

[2] = tested on: N-methyl-D-aspartate (NMDA) induced lethality; test: Protection against NMDA induced lethality; format: in vivo, Balb/c male mice; settings: mice; result in words
Method: as §1, §2

[3] = tested on: strychnine induced lethality; test: Protection against strychnine induced lethality; format: in vivo; settings: rats; result in words
From the text: as §1

forebrain ischemia = test: Protection against forebrain ischemia (unilateral occlusion); format: in vivo; settings: mongolian gerbils, result in words
From the text: as §1

intraocular pressure = test: Reduction of intraocular pressure (anti-glaucoma); format: in vivo, rabbits; settings: 50 μl drop of a 1% emulsion into rabbit eye
Method: Reduction of intraocular pressure in rabbits was determined by the addition of a 50 μl drop of a 1% emulsion of the cannabinoid into the rabbit eye. This test is a measure of anti-glaucoma activity.

NMDA receptor = test: NMDA-blocking response in Xenopus oocytes injected with rat brain RNA; format: cell-based; settings: upon return to ND 96 solution
From the text: The oocyte is the most widely used system for studying the molecular, biophysical. and pharmacological properties of expressed voltage- or transmitter-operated ion channels. This giant cell offers several advantages for this type of studies. It can be readily used for two-electrode voltage clamp studies, translates injected mRNA from different sources and functionally expresses the translated proteins, and it is also readily amenable for intracellular microinjections. Importantly, the recordings of transmitter or voltage-induced currents in a single oocyte are extremely stable and can be done, without rundown, for 2-3 hours; this allows the performance of a full dose-response relation in single oocytes.
Neuronal receptors for excitatory amino acid (EAA) are becoming increasingly important for the understanding of normal and pathological brain function. Quantitative pharmacological studies of EAA receptor/ion channel. complex are difficult to study in neurons. Therefore, Xenopus oocyte injected with brain MRNA is now the preparation of choice.
The response to N-methyl-D-aspartate (NMDA) in oocytes injected with rat brain mRNA was characterized and the effects of HU-245 were studied.
Female Xenopus were anesthetized by immersion in water containing 0.15% tricaine methanesulfonate and a small incision was made in the lower abdomen. Ovary fragments were removed into ND-96. […]

Solubility = format: physicochemical; settings: result in words

CCCCCCC(C)(C)c1cc(OC(C)=O)c2c(c1)OC(C)(C)[C@H]1CC=C(C(=O)O)C[C@H]21 [HU-245, (3S, 4S) -THC-DMH-7-oic acid, acetate]
adhering cells, percent of control (peritoneal leukocytes; 0.10 mg/kg oral): 124% of control
number of adhering cells (peritoneal leukocytes; 0.10 mg/kg oral): 0.66 ± 0.08 number of adhering cells × 10^-6
number of adhering cells (peritoneal leukocytes; 0.50 mg/kg oral): 0.85 ± 0.08 number of adhering cells × 10^-6
number of adhering cells (peritoneal leukocytes; 1.00 mg/kg oral): 0.30 ± 0.04 number of adhering cells × 10^-6
percent change in latency (mouse hot plate test): 10.7%
cataleptic response (fraction of time immobile) (cataleptic response; 0.5 mg/kg): 6.8 ± 2.4
cataleptic response (fraction of time immobile) (cataleptic response; 1.0 mg/kg): 12.0 ± 6.0
blocking of picrotoxin induced lethality [1]: blocker
blocking of NMDA induced lethality [2]: blocker
protection against strychnine induced lethality [3]: protects against strychnine induced lethality
protection against forebrain ischemia (forebrain ischemia): shown to protect against forebrain ischemia
reduction of intraocular pressure (intraocular pressure): Significant reduction
reversibility of effect on NMDA response (NMDA receptor): reversible
solubility compared with prior art compounds (Solubility): higher than that of prior art compounds
